The source of these data is patent US5663152A, “Potentiators for aminoglycosides” (Asahi Kasei Kogyo Kabushiki Kaisha, priority 1995, dated 1997).

Converted amounts (≈) assume the structure as drawn. Like-named read-outs stand apart in the source and are kept apart here. Where only a bound is given, the exact number is not on record here.

In series [1] the test system is Escherichia coli (ATCC 10536). As to the kind of experiment: Minimum inhibitory concentration by broth dilution, Escherichia coli (ATCC 10536). In kind it is cell-based. The conditions noted are these: for MIC: Escherichia coli, ATCC10536, 48 h, read-out: MIC Alone. The source says:
(§1) Microorganism strains were supplied by the ATCC. Staphylococcus aureus is a clinically significant member of the gram-positive group of bacterial pathogens. It gives rise to serious infections, and may produce bacteremia, endocarditis, and meningitis. Methicillin-resistant strains of Staphylococcus aureus were chosen for evaluation because they present a significant medical problem, in view of the fact that methicillin is the drug of choice for treatment of S. aureus infection in the common penicillin-resistant strains.
(§2) Escherichia coli is also a gram-negative pathogenic bacillus which may cause enteritis, peritonitis, or cystitis.
(§3) The MICs were determined by the broth dilution method (Kubo et al. J. Agric. Food Chem. 1992, 40, 245-248). Test compounds were dissolved in Di-Methyl Formamide("DMF") to make stock solution at concentrations of 80, 40, 20, or 10 mg/ml depending upon the potency and solubility. An aliquot of 0.01 ml of the stock solution was added to a tube containing 0.99 ml of media to get the initial concentration of testing solution. Serial two-fold dilutions were made by mixing 0.5 ml of testing solution with 0.5 ml of blank medium. A 0.5 ml aliquot of diluted inoculum containing an appropriate concentration of the test microorganism (1:100 dilution of the initial inoculum) was then added into each tube containing 0.5 ml serial dilutions of the test compound. After incubating for 2 days at 37° C., the tube was evaluated for visible growth. The MIC was determined as the lowest concentration of a compound which prevented visible microorganism growth. A culture growth control without compound (solvent only) and several culture sensitive reference agents were used as positive controls. The assays were performed in duplicate.
Background: In broth dilution the organism is exposed to a series of concentrations in liquid medium.

For series [2] the following is noted: occurring in foods, routinely consumed in the diet; in words; cited from earlier work.
The subject of series [3] is Pseudomonas aeruginosa (ATCC 10145). As to the kind of experiment: Minimum biocidal concentration, Pseudomonas aeruginosa (ATCC 10145). In kind it is cell-based. The conditions noted are these: for MBC: Pseudomonas aeruginosa, ATCC10145, read-out: MBC Alone.
Excerpt: as §1
(§4) Pseudomonas aeruginosa was also chosen for evaluation. P. aerugtnosa is a gram-negative pathogenic bacillus which may cause urinary tract infections or pneumonia.
(§5) After determining the MIC, 0.1 ml of a ten-fold dilution from each tube showing no turbidity was plated onto chemical free nutrient agar plates. After 24 hours of incubation, the colonies were counted. The MBC was the lowest concentration of antibacterial compound that decreased the initial inoculum population by >99.9 percent. The initial population for E. coli. was 1×10^7 -6×10^7 colony forming units (CFU) per ml; for P. aeruginosa was 1×10^6 -5×10^6 CFU per ml; and for methicillin-resistant Staphylococcus aureus (MRSA) was 2×10^6 -7×10^6 CFU per ml.

Series [4] has as its system Escherichia coli (ATCC 10536). As to the kind of experiment: Minimum biocidal concentration, Escherichia coli (ATCC 10536). In kind it is cell-based. Conditions: for MBC: Escherichia coli.
Excerpt: as §1, §2, §5

Series [5] deals with Pseudomonas aeruginosa (ATCC 10145). As to the kind of experiment: Minimum inhibitory concentration by broth dilution, Pseudomonas aeruginosa (ATCC 10145). In kind it is cell-based. The conditions noted are these: for MIC: Pseudomonas aeruginosa, ATCC10145, 48 h, read-out: MIC Alone.
Excerpt: as §1, §4, §3

In series [6] the test system is Methicillin-resistant Staphylococcus aureus (ATCC 33591). The experiment in a line: Minimum biocidal concentration, MRSA (ATCC 33591). In kind it is cell-based. The conditions noted are these: substance alone, >99.9 percent decrease of inoculum; for MBC: Staphylococcus aureus.
Excerpt: as §1, §5

For series [7] the test system is unchanged. The experiment in a line: Minimum inhibitory concentration by broth dilution, MRSA (ATCC 33591). In kind it is cell-based. Conditions: substance alone, 2 days at 37° C.; for MIC: Staphylococcus aureus, 48 h.
Excerpt: as §1, §3

The conditions of series [8]: in words; cited from earlier work.
Series [9] deals with gram-negative and gram-positive organisms. The conditions noted are these: in words, cited from earlier work.
Series [10] deals with aminoglycoside-inactivating enzymes. The conditions noted are these: in words; cited from earlier work.
The mark [11] stands for this setting: read-out: MBC Alone, MRSA ATCC 33591.
The mark [12] stands for this setting: read-out: MIC Alone, MRSA ATCC 33591.
The mark [13] stands for this setting: MRSA ATCC 33591, read-out: MBC Alone.
[14] abbreviates: MRSA ATCC 33591, read-out: MIC Alone.
[15] abbreviates: E. coli ATCC 10536, substance alone, 2 days at 37° C.

For orientation: MIC means the lowest concentration that inhibits growth of the organism. The term MBC denotes the lowest tested concentration that kills the bacteria rather than only halting them. In the case of `CCCC=CC=O` [2-Hexenal, 2-hexenal], the MIC in series [1] was found to be 200 µg/mL (≈ 2.04 mM); in [5], 200 µg/mL (≈ 2.04 mM); in [7] (setting [12]), 400 µg/mL (≈ 4.08 mM). In addition, in series [2], the toxicity of potentiators result was “routinely consumed in the diet without apparent harm”. For the same compound, the MBC in series [3] came to 200 µg/mL (≈ 2.04 mM); in series [4] (ATCC10536, read-out: MBC Alone), 200 µg/mL (≈ 2.04 mM); in series [6] (setting [11]), 800 µg/mL (≈ 8.15 mM). Moreover, in [6] (MRSA ATCC 33591), the “MBC Alone” value came to 400 µg/mL (≈ 4.08 mM). The “MIC Alone” value in [7] (MRSA ATCC 33591) amounted to 200 µg/mL (≈ 2.04 mM).

As to `NCC[C@H](O)C(=O)N[C@@H]1C[C@H](N)[C@@H](O[C@H]2O[C@H](CN)[C@@H](O)[C@H](O)[C@H]2O)[C@H](O)[C@H]1O[C@H]1O[C@H](CO)[C@@H](O)[C@H](N)[C@H]1O` [Amikacin], the side effects entry in series [8] is “strong side effects, such as nephrotoxicity, ototoxicity, or neuromuscular blockade”. In addition, the “antibacterial activity in vitro” value in series [9] was “broad range of activity against gram-negative and gram-positive organisms”. Further, the MBC in series [6] (setting [13]) was found to be 200 µg/mL (≈ 0.342 mM). In addition, the “degradation by aminoglycoside-inactivating enzymes” value in series [10] is “resists degradation by most aminoglycoside-inactivating enzymes”. For the same compound, the minimal inhibitory concentration (MIC) in series [7] (setting [14]) is 200 µg/mL (≈ 0.342 mM).

As for `CC=Cc1ccc(OC)cc1` [Anethole, anethole], the MIC in series [1] (setting [15]) was 400 µg/mL (≈ 2.7 mM); in [7] (setting [14]) it was > 1600 µg/mL. Further, the toxicity of potentiators result in [2] was “routinely consumed in the diet without apparent harm”. Besides, the minimum bactericidal concentration (MBC) is 800 µg/mL (≈ 5.4 mM) in series [4] (ATCC10536, E. coli ATCC 10536, substance alone, >99.9 percent decrease of inoculum, read-out: MBC Alone) and > 1600 µg/mL in series [6] (setting [13]).

Consider `c1ccc2[nH]ccc2c1` [Indole, indole], for which the minimal inhibitory concentration (MIC) in series [1] was found to be 800 µg/mL (≈ 6.83 mM); in series [5], 400 µg/mL (≈ 3.41 mM); in series [7] (setting [12]), 800 µg/mL (≈ 6.83 mM). Moreover, the toxicity of potentiators entry in series [2] was “routinely consumed in the diet without apparent harm”. Moreover, the minimal bactericidal concentration (MBC) in [3] turned out to be 800 µg/mL (≈ 6.83 mM); in [4] (ATCC10536, read-out: MBC Alone) it was 800 µg/mL (≈ 6.83 mM); in series [6] (setting [11]) it was 1600 µg/mL (≈ 13.7 mM).

In the case of `NC[C@H]1O[C@H](O[C@H]2[C@H](O)[C@@H](O[C@H]3O[C@H](CO)[C@@H](O)[C@H](N)[C@H]3O)[C@H](N)C[C@@H]2N)[C@H](N)C[C@@H]1O` [Tobramycin], the side effects entry in [8] was “strong side effects, such as nephrotoxicity, ototoxicity, or neuromuscular blockade”. Further, in series [9] (in vitro tests), the mode of action result was “bactericidal and that it acts by interfering with protein synthesis in bacterial cells”. Moreover, the “antibacterial activity in vitro” value in [9] was “broad range of activity against gram-negative and gram-positive organisms”. In addition, in series [6] (setting [13]), the minimum bactericidal concentration (MBC) stood at 1600 µg/mL (≈ 3.42 mM). Moreover, in series [7] (setting [14]), the minimum inhibitory concentration (MIC) came to 800 µg/mL (≈ 1.71 mM).

With Gentamicin [reference compound], the “MIC Alone” value in [1] (setting [15]) was found to be 0.78 µg/mL; in series [5] (P. aeruginosa ATCC 10145, substance alone, 2 days at 37° C.), 0.39 µg/mL; in [7] (MRSA ATCC 33591) it was 1.56 µg/mL. The “MBC Alone” value was determined as 0.78 µg/mL in series [3] (P. aeruginosa ATCC 10145, substance alone, >99.9 percent decrease of inoculum); 0.78 µg/mL in series [4] (E. coli ATCC 10536, substance alone, >99.9 percent decrease of inoculum); 1.56 µg/mL in [6] (MRSA ATCC 33591). Further, in series [8], the side effects result is “strong side effects, such as nephrotoxicity, ototoxicity, or neuromuscular blockade”.
